Values joined by “and” are separate entries in the source; they are usually repeats but may differ in a detail not shown here. Equal values may be shown once.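 Each compound was tested at five concentrations against cells in 96-well plates for 48 hours. GI50: concentration for 50% inhibition of growth. TGI is the concentration that stops growth completely.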

Test systems include HCT-15 colon; HOP-92 NSCLC; KM12 colon; MCF7 breast; PC-3 prostate; SF-295 CNS; SK-MEL-5 melanoma; SK-OV-3 ovarian; U251 CNS; UACC-257 melanoma.
Holding throughout (experiment): NCI anticancer screen, dose series, 48 h

For the molecule `O=C(O)c1nc2nc(Cl)c(Cl)nc2[nH]1`, the TGI with HCT-15 colon, in the assay with HOP-92 NSCLC, in the assay with KM12 colon, in the assay with MCF7 breast, with PC-3 prostate and with SF-295 CNS was more than 100 µM each time. Moreover, the TGI in the assay on SK-MEL-5 melanoma, in the assay with SK-OV-3 ovarian, in the assay with U251 CNS and with UACC-257 melanoma was more than 100 µM each time.

Consider `COc1cccc(-c2nc(-c3ccc(NC(=O)OC(C)C)cc3)[nH]c2-c2ccnc(Br)c2)c1`, for which the GI50 in the assay with HCT-15 colon was 1190 nM; with HOP-92 NSCLC, 3.19 µM; in the assay with KM12 colon, 2410 nM; in the assay with MCF7 breast, 1590 nM; in the assay on PC-3 prostate, 2.62 µM; in the assay with SF-295 CNS, 256 nM. The GI50 in the assay with SK-MEL-5 melanoma was 1880 nM; in the assay with SK-OV-3 ovarian, 3.85 µM; with U251 CNS, 1690 nM; in the assay with UACC-257 melanoma, 3.15 µM. Moreover, the TGI in the assay on HCT-15 colon is 4.79 µM; with HOP-92 NSCLC, 8.29 µM; in the assay with KM12 colon, more than 100 µM; in the assay with MCF7 breast it was 8.15 µM; in the assay on PC-3 prostate, more than 100 µM; with SF-295 CNS, 0.64 µM. Also, the TGI with SK-MEL-5 melanoma is 3.65 µM; in the assay on SK-OV-3 ovarian it was more than 100 µM; in the assay with U251 CNS, more than 100 µM; with UACC-257 melanoma it was more than 100 µM.

As for `Nc1n[nH]c2cc(F)c([C@@H]3Nc4ccc5[nH]ncc5c4[C@H]4C5CCC(C5)[C@@H]34)cc12` (some centres undefined), the GI50 is 159 nM in the assay on HCT-15 colon; 0.24 µM with HOP-92 NSCLC; 180 nM in the assay with KM12 colon; 115 nM in the assay with MCF7 breast; 0.238 µM with PC-3 prostate; 120 nM in the assay with SF-295 CNS. The GI50 was 128 nM in the assay with SK-MEL-5 melanoma, 0.359 µM in the assay on SK-OV-3 ovarian, 189 nM in the assay with U251 CNS and 3.98 µM in the assay with UACC-257 melanoma. Also, the TGI in the assay on HCT-15 colon worked out at 9.04 µM; in the assay with HOP-92 NSCLC it was 9.01 µM; in the assay on KM12 colon it was 4.01 µM; in the assay with MCF7 breast, 9.18 µM; with PC-3 prostate, 18.7 µM; in the assay with SF-295 CNS, 6.03 µM. Moreover, the TGI was 0.355 µM in the assay on SK-MEL-5 melanoma, more than 32.1 µM with SK-OV-3 ovarian, 9.3 µM with U251 CNS and 44.8 µM with UACC-257 melanoma.

Consider `CC1(COc2ccc3c(c2)ncn3-c2ccc3cccc(N4CCC(N)CC4)c3n2)COC1`, for which the GI50 is 3370 nM and 2920 nM with HCT-15 colon; 10.3 µM and 3.27 µM in the assay with HOP-92 NSCLC; 51.9 nM and 118 nM in the assay with KM12 colon; 2170 nM and 2200 nM in the assay with MCF7 breast; 5.38 µM and 3.54 µM in the assay on PC-3 prostate; 5750 nM and 2880 nM in the assay on SF-295 CNS. The GI50 was 2310 nM and 2120 nM in the assay on SK-MEL-5 melanoma; 15.5 µM and > 10 µM in the assay on SK-OV-3 ovarian; 1700 nM and 1870 nM with U251 CNS; 2.7 µM in the assay with UACC-257 melanoma. Besides, the TGI with HCT-15 colon is 12.3 µM and > 10 µM; with HOP-92 NSCLC it was 25.7 µM and > 10 µM; in the assay on KM12 colon, 5.74 µM and > 10 µM; in the assay on MCF7 breast it was 6.54 µM and 7.83 µM; in the assay with PC-3 prostate, 21.6 µM and > 10 µM; in the assay on SF-295 CNS, 19.4 µM and > 10 µM. Moreover, the TGI is 6.7 µM and 5.22 µM with SK-MEL-5 melanoma; 29.2 µM and > 10 µM in the assay with SK-OV-3 ovarian; 4.09 µM and 5.66 µM in the assay with U251 CNS; 5.36 µM and 5.55 µM in the assay with UACC-257 melanoma.

As to `CCC(=C/[C@H](C)C/C=C/C(C)=C/[C@@H](C)C(=O)[C@@H](C)[C@H](O)[C@@H](C)CC)/C=C/[C@H]1OC(=O)C=C[C@@H]1C`, the GI50 is less than 10 nM in the assay on HCT-15 colon; less than 0.01 µM in the assay with HOP-92 NSCLC; less than 10 nM in the assay with KM12 colon; less than 10 nM in the assay on MCF7 breast; less than 0.01 µM in the assay with PC-3 prostate; less than 10 nM in the assay on SF-295 CNS. Moreover, the figures for the GI50 with SK-MEL-5 melanoma, in the assay with SK-OV-3 ovarian and with U251 CNS were less than 10 nM, less than 0.035 µM and less than 10 nM, respectively. Also, the TGI in the assay on HCT-15 colon was 1.28 µM; in the assay with HOP-92 NSCLC, 1.2 µM; in the assay with KM12 colon it was 1.15 µM; in the assay on MCF7 breast, 1.26 µM; in the assay with PC-3 prostate, 3.04 µM; in the assay with SF-295 CNS, 1.43 µM. For the same molecule, the TGI with SK-MEL-5 melanoma was 0.0342 µM; in the assay on SK-OV-3 ovarian, 13.4 µM; in the assay with U251 CNS it was 1.36 µM.

Consider `O=C(Nc1ccc(Oc2ccc(Nc3nc4ccccc4s3)cc2)cc1)Nc1ccc(Cl)c(C(F)(F)F)c1`, for which the GI50 with HCT-15 colon was 1540 nM; with HOP-92 NSCLC, 0.73 µM; in the assay on KM12 colon it was 1510 nM; with MCF7 breast, 1350 nM; in the assay on PC-3 prostate it was 1.07 µM; in the assay with SF-295 CNS, 1660 nM. The GI50 is 1450 nM in the assay with SK-MEL-5 melanoma, 1.86 µM with SK-OV-3 ovarian, 1610 nM in the assay on U251 CNS and 1.83 µM in the assay with UACC-257 melanoma. Moreover, the TGI with HCT-15 colon is 3.44 µM; in the assay on HOP-92 NSCLC, 3.28 µM; in the assay on KM12 colon it was 3.34 µM; in the assay on MCF7 breast it was 3.7 µM; in the assay on PC-3 prostate, 2.79 µM; in the assay with SF-295 CNS it was 3.41 µM. The TGI in the assay on SK-MEL-5 melanoma was 2.79 µM; in the assay with SK-OV-3 ovarian it was 4.42 µM; with U251 CNS, 3.55 µM; with UACC-257 melanoma it was 6.09 µM.

`CCCCCCCCCCCCC(O)c1ccc(C#CCCCCCCCCCO)o1` (centres undefined): the GI50 with HCT-15 colon is 18200 nM; in the assay on HOP-92 NSCLC, 19.8 µM; in the assay with KM12 colon, 20500 nM; with MCF7 breast it was 17300 nM; in the assay on PC-3 prostate, 25.2 µM; in the assay with SF-295 CNS, 16400 nM. Moreover, the GI50 in the assay on SK-MEL-5 melanoma is 25500 nM; in the assay on SK-OV-3 ovarian, 25.8 µM; in the assay on U251 CNS it was 18500 nM; in the assay on UACC-257 melanoma it was 24.1 µM. The TGI is 36.8 µM in the assay on HCT-15 colon; 37.9 µM in the assay on HOP-92 NSCLC; 39.9 µM with KM12 colon; 42.3 µM in the assay on MCF7 breast; 59.6 µM with PC-3 prostate; 31.7 µM in the assay with SF-295 CNS. The TGI is 47.2 µM in the assay with SK-MEL-5 melanoma, 62.2 µM in the assay on SK-OV-3 ovarian, 33.6 µM in the assay with U251 CNS and 51 µM in the assay with UACC-257 melanoma.

For `COc1cc(-c2ccc3cc(OC)c(OC)c(OC)c3c2)cc(OC)c1OC`, the GI50 was 6030 nM in the assay on HCT-15 colon; 2.17 µM with HOP-92 NSCLC; 5930 nM in the assay with KM12 colon; more than 100000 nM in the assay with MCF7 breast; 5.81 µM with PC-3 prostate; 34.4 µM in the assay on SK-OV-3 ovarian. Also, the GI50 with U251 CNS was 15700 nM; with UACC-257 melanoma, more than 100 µM. Besides, the TGI with HCT-15 colon was more than 100 µM; in the assay with HOP-92 NSCLC, 14.1 µM; with KM12 colon it was more than 100 µM; in the assay on MCF7 breast, more than 100 µM; in the assay on PC-3 prostate it was more than 100 µM; with SK-OV-3 ovarian it was more than 100 µM. Besides, the TGI in the assay with U251 CNS and with UACC-257 melanoma was more than 100 µM in each case.
